Data on eight compounds can be found in patent US20230157952A1, “METHOD FOR IMPROVING THE STABILITY OF A PHARMACEUTICAL COMPOSITION COMPRISING A HIGH PENETRATION DRUG, AND THE PHARMACEUTICAL COMPOSITION OBTAINED THEREFROM” (Techfields Inc., priority 2020, published 2023).

Holding throughout (assay type): physicochemical
The nature of data set [1]: Effect of pH value on the stability of the solution (purity). Particulars: for Purity(%) from day 0-28 / Purity(%) from day 0-14: 25° C.
The nature of data set [2]: Effect of temperature (and pH) on the stability of the solution (purity). The following applies: 7% solution in water.
A short description of data set [3]: Stability of the pure HPDs (dry solid) at 25° C./RH 60%. The following applies: for Purity: pure HPD, 25° C./RH 60%.
[4] abbreviates: day 28, pH 1.0, 7% in 25% ethanol.
[5] abbreviates: day 28, pH 2.0, 7% in 25% ethanol.
The mark [6] stands for this setting: day 28, pH 3.0, 7% in 25% ethanol.
[7] abbreviates: day 28, pH 3.7, 7% in 25% ethanol.
[8] abbreviates: day 28, pH 4.6, 7% in 25% ethanol.
[9] abbreviates: day 28, pH 5.0, 7% in 25% ethanol.
[10] abbreviates: day 28, pH 6.0, 7% in 25% ethanol.
Setting [11] is: day 28, pH 7.0, 7% in 25% ethanol.
Setting [12] is: day 28, pH 8.0, 7% in 25% ethanol.
[13] abbreviates: day 28, pH 4.0, 7% in 25% ethanol.
The mark [14] stands for this setting: day 28, pH 4.3, 7% in 25% ethanol.

Consider `CCN(CC)CCOC(=O)C(C)c1ccc(CC(C)C)cc1.Cl` (racemic) [C-4, 2-(diethylamino)ethyl (R,S)-2-(p-isobutylphenyl)propionate•HCl salt], for which the “Purity(%) from day 0-28” value amounted to 69.1 ± 0.2% in data set [1] (setting [4]); 80.8 ± 0.4% in data set [1] (setting [5]); 92.5 ± 0.3% in data set [1] (setting [6]); 97.2 ± 0.4% in data set [1] (setting [7]); 97.3 ± 0.3% in data set [1] (setting [8]); 94.3 ± 0.2% in data set [1] (setting [9]). Besides, the “Purity(%) from day 0-28” value in data set [1] (setting [10]) is 89.9 ± 0.3%; in data set [1] (setting [11]), 52.8 ± 0.4%; in data set [1] (setting [12]), 35.3 ± 0.3%. Besides, the “Stability of the solution at a temperature higher than 40° C. and a pH lower than 3 or greater than 6” value in data set [2] was “not stable”. Moreover, the Purity was 99.9 ± 0.2 in data set [3] (3 month, listed as C-1-1); 99.8 ± 0.2 in data set [3] (6 month, listed as C-1-1); 99.8 ± 0.3 in data set [3] (9 month, listed as C-1-1); 98.1 ± 0.3 in data set [3] (12 month); 99.5 ± 0.3 in data set [3] (12 month, listed as C-1-1); 98.0 ± 0.1 in data set [3] (18 month). Moreover, the Purity amounted to 99.8 ± 0.3 in data set [3] (18 month, listed as C-1-1); 97.9 ± 0.3 in data set [3] (24 month); 99.7 ± 0.4 in data set [3] (24 month, listed as C-1-1); 99.8 ± 0.1 in data set [3] (Day 0, listed as C-1-1).

`CC(C)Cc1ccc([C@@H](C)C(=O)OCCN(C)C)cc1.Cl` (racemic) [C-5, 2-(dimethylamino)ethyl (R,S)-2-(p-isobutylphenyl)propionate•HCl salt]: the “Purity(%) from day 0-28” value is on record as 65.3 ± 0.3% in data set [1] (setting [4]); 77.4 ± 0.3% in data set [1] (setting [5]); 88.4 ± 0.2% in data set [1] (setting [6]); 95.7 ± 0.3% in data set [1] (setting [7]); 96.6 ± 0.4% in data set [1] (setting [13]); 96.8 ± 0.3% in data set [1] (setting [14]). Besides, the “Purity(%) from day 0-28” value in data set [1] (setting [8]) was determined as 96.8 ± 0.2%; in data set [1] (setting [9]), 93.1 ± 0.4%; in data set [1] (setting [10]) it was 85.3 ± 0.2%; in data set [1] (setting [11]), 47.1 ± 0.3%; in data set [1] (setting [12]), 34.9 ± 0.5%. In addition, the Purity in data set [3] (3 month) is 98.1 ± 0.2; in data set [3] (6 month), 98.1 ± 0.3; in data set [3] (12 month) it was 98.0 ± 0.4; in data set [3] (18 month), 97.9 ± 0.1; in data set [3] (24 month), 97.7 ± 0.4.

Regarding `CCCCN(CCCC)CCOC(=O)C(C)c1ccc(CC(C)C)cc1.Cl` (racemic) [C-6, 2-(dibutylamino)ethyl (R,S)-2-(p-isobutylphenyl)propionate•HCl salt], the “Purity(%) from day 0-28” value was 68.4 ± 0.3% in data set [1] (setting [4]); 79.2 ± 0.4% in data set [1] (setting [5]); 91.2 ± 0.3% in data set [1] (setting [6]); 96.9 ± 0.2% in data set [1] (setting [7]); 97.3 ± 0.2% in data set [1] (setting [13]); 97.3 ± 0.3% in data set [1] (setting [14]). Further, the “Purity(%) from day 0-28” value is on record as 97.1 ± 0.3% in data set [1] (setting [8]); 94.5 ± 0.3% in data set [1] (setting [9]); 89.2 ± 0.4% in data set [1] (setting [10]); 51.5 ± 0.3% in data set [1] (setting [11]); 35.1 ± 0.3% in data set [1] (setting [12]). This compound showed a Purity in data set [3] (24 month) of 98.1 ± 0.2.

As to `CCN(CC)CCOC(=O)c1ccccc1OC(C)=O.O=C(O)c1ccccc1` [A-2, 2-(diethylamino)ethyl acetylsalicylate•benzoic acid salt], the “Purity(%) from day 0-14” value in data set [1] (day 14, pH 1.0, 7% in water) turned out to be 60.5 ± 0.3%; in data set [1] (day 14, pH 2.0, 7% in water), 79.7 ± 0.4%; in data set [1] (day 14, pH 3.0, 7% in water) it was 91.0 ± 0.2%; in data set [1] (day 14, pH 3.7, 7% in water) it was 94.1 ± 0.2%; in data set [1] (day 14, pH 4.0, 7% in water), 95.0 ± 0.3%; in data set [1] (day 14, pH 4.3, 7% in water), 95.0 ± 0.4%. The “Purity(%) from day 0-14” value was 94.4 ± 0.3% in data set [1] (day 14, pH 4.6, 7% in water); 87.3 ± 0.2% in data set [1] (day 14, pH 5.0, 7% in water); 78.3 ± 0.3% in data set [1] (day 14, pH 6.0, 7% in water); 56.0 ± 0.4% in data set [1] (day 14, pH 7.0, 7% in water); 17.7 ± 0.4% in data set [1] (day 14, pH 8.0, 7% in water). Besides, the Purity in data set [3] (12 month) amounted to 97.9 ± 0.1; in data set [3] (18 month) it was 97.6 ± 0.2; in data set [3] (24 month), 97.1 ± 0.2.

`CC(O)C(=O)O.CCN(CC)CCOC(=O)c1ccccc1OC(C)=O` [A-3, 2-(diethylamino)ethyl acetylsalicylate•lactic acid salt]: the “Purity(%) from day 0-14” value was 57.9 ± 0.4% in data set [1] (day 14, pH 1.0, 7% in water); 77.0 ± 0.4% in data set [1] (day 14, pH 2.0, 7% in water); 88.7 ± 0.2% in data set [1] (day 14, pH 3.0, 7% in water); 93.1 ± 0.3% in data set [1] (day 14, pH 3.7, 7% in water); 94.1 ± 0.4% in data set [1] (day 14, pH 4.0, 7% in water); 94.4 ± 0.2% in data set [1] (day 14, pH 4.3, 7% in water). Moreover, the “Purity(%) from day 0-14” value in data set [1] (day 14, pH 4.6, 7% in water) came to 94.1 ± 0.2%; in data set [1] (day 14, pH 5.0, 7% in water), 85.6 ± 0.4%; in data set [1] (day 14, pH 6.0, 7% in water) it was 78.3 ± 0.3%; in data set [1] (day 14, pH 7.0, 7% in water), 55.1 ± 0.3%; in data set [1] (day 14, pH 8.0, 7% in water) it was 15.0 ± 0.4%. In addition, the Purity amounted to 97.9 ± 0.2 in data set [3] (12 month), 97.3 ± 0.1 in data set [3] (18 month) and 96.8 ± 0.2 in data set [3] (24 month).

For the compound `CCCCC(=O)O.CCN(CC)CCOC(=O)c1ccccc1OC(C)=O` [A-4, 2-(diethylamino)ethyl acetylsalicylate•valeric acid], the “Purity(%) from day 0-14” value in data set [1] (day 14, pH 1.0, 7% in water) is 58.1 ± 0.3%; in data set [1] (day 14, pH 2.0, 7% in water), 77.3 ± 0.2%; in data set [1] (day 14, pH 3.0, 7% in water), 87.5 ± 0.3%; in data set [1] (day 14, pH 3.7, 7% in water), 93.2 ± 0.3%; in data set [1] (day 14, pH 4.0, 7% in water), 94.2 ± 0.4%; in data set [1] (day 14, pH 4.3, 7% in water), 94.7 ± 0.2%. Also, the “Purity(%) from day 0-14” value in data set [1] (day 14, pH 4.6, 7% in water) was determined as 94.0 ± 0.2%; in data set [1] (day 14, pH 5.0, 7% in water), 85.5 ± 0.4%; in data set [1] (day 14, pH 6.0, 7% in water), 77.3 ± 0.3%; in data set [1] (day 14, pH 7.0, 7% in water) it was 52.5 ± 0.4%; in data set [1] (day 14, pH 8.0, 7% in water), 15.2 ± 0.4%. Moreover, the Purity in data set [3] (6 month) was determined as 98.6 ± 0.1; in data set [3] (12 month), 98.0 ± 0.2; in data set [3] (18 month) it was 97.9 ± 0.2; in data set [3] (24 month), 97.2 ± 0.1; in data set [3] (Day 0), 98.6 ± 0.2.

For `CC(C)Cc1ccc([C@@H](C)C(=O)OC[C@@H]2CCCN2)cc1.Cl` [C-7, 2-pyrrolidinemethyl (R,S)-2-(p-isobutylphenyl)propionate•HCl salt], the “Purity(%) from day 0-28” value is listed as 66.8 ± 0.3% in data set [1] (setting [4]); 86.0 ± 0.4% in data set [1] (setting [5]); 86.0 ± 0.3% in data set [1] (setting [6]); 94.3 ± 0.3% in data set [1] (setting [7]); 95.8 ± 0.3% in data set [1] (setting [13]); 96.5 ± 0.4% in data set [1] (setting [14]). For the same compound, the “Purity(%) from day 0-28” value in data set [1] (setting [8]) came to 96.2 ± 0.3%; in data set [1] (setting [9]), 89.3 ± 0.2%; in data set [1] (setting [10]), 86.2 ± 0.3%; in data set [1] (setting [11]), 48.0 ± 0.3%; in data set [1] (setting [12]), 34.3 ± 0.4%. The figures for the Purity in data set [3] (9 month), in data set [3] (18 month) and in data set [3] (24 month) were 98.1 ± 0.1, 98.0 ± 0.3 and 97.9 ± 0.1, respectively.

Turning to “H-Tyr-Gly-Gly-Phe-Met-OCH(CH3)2.HCl [U-2]”, in data set [1] (5% solution in 25% ethanol at 25° C.), the “pH at which the solution is stable” value was 3-6. For the same compound, the “Time the solution can be stored at room temperature” value in data set [1] (5% solution in 25% ethanol, pH 3-6) was “about 1 year”. Besides, the Purity was determined as 98.9 ± 0.3 in data set [3] (3 month); 98.6 ± 0.2 in data set [3] (6 month); 98.6 ± 0.3 in data set [3] (9 month); 98.5 ± 0.2 in data set [3] (12 month); 98.5 ± 0.2 in data set [3] (18 month); 98.4 ± 0.2 in data set [3] (24 month). Besides, in data set [3] (Day 0), the Purity is on record as 98.9 ± 0.1. In addition, the “Stability of the pure powder” value in data set [3] (room temperature (25° C./RH 60%)) is recorded as “very stable”.
